{
  "source": "the kinase profiling compilation of Christmann-Franck et al. (2016)",
  "assay_in_all_cases": "radiometric filter-binding kinase assay, Kinase HotSpot",
  "details_in_all_cases": "compound 0.5 µM; ATP 10 µM",
  "key": {"[1]": {"biological_target": "PRKG2 (human) (UniProt Q13237)"}, "[2]": {"biological_target": "PBK (human) (UniProt Q96KB5)"}, "[3]": {"biological_target": "NEK7 (human) (UniProt Q8TDX7)"}, "[4]": {"biological_target": "MAP3K8 (human) (UniProt P41279)"}, "[5]": {"biological_target": "TSSK1B (human) (UniProt Q9BXA7)"}, "[6]": {"biological_target": "MAP4K5 (human) (UniProt Q9Y4K4)"}, "[7]": {"biological_target": "PLK2 (human) (UniProt Q9NYY3)"}, "[8]": {"biological_target": "RPS6KA2 KD1 KD2 (human) (UniProt Q15349)"}, "[9]": {"biological_target": "CDK5 CDK5R1 p35 (human) (UniProt Q00535+Q15078)"}, "[10]": {"biological_target": "FLT3 (human) (UniProt P36888)"}, "[11]": {"biological_target": "CAMK1D (human) (UniProt Q8IU85)"}, "[12]": {"biological_target": "CSNK1G1 (human) (UniProt Q9HCP0)", "sequence (Q9HCP0 whole entry, looked up)": "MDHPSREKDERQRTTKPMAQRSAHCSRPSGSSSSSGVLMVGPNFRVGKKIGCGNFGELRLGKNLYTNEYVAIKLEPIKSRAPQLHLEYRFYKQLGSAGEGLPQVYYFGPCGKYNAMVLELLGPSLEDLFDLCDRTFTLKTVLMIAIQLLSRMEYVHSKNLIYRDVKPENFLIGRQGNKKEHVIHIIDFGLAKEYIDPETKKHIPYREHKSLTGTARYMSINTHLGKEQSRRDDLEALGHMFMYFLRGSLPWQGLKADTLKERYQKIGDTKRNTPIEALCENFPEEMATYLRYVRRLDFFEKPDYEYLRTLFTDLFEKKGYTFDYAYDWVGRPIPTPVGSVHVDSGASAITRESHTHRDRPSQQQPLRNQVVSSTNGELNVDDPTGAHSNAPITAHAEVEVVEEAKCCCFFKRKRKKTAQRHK"}, "[13]": {"biological_target": "MARK3 (human) (UniProt P27448)"}, "[14]": {"biological_target": "PAK1 (human) (UniProt Q13153)"}, "[15]": {"biological_target": "DAPK1 (human) (UniProt P53355)"}, "[16]": {"biological_target": "PRKCG (human) (UniProt P05129)"}, "[17]": {"biological_target": "TEK (human) (UniProt Q02763)"}, "[18]": {"biological_target": "HCK (human) (UniProt P08631)"}, "[19]": {"biological_target": "TGFBR1 (human) (UniProt P36897)"}, "[20]": {"biological_target": "STK11 (human) (UniProt Q15831)", "sequence (Q15831 whole entry, looked up)": "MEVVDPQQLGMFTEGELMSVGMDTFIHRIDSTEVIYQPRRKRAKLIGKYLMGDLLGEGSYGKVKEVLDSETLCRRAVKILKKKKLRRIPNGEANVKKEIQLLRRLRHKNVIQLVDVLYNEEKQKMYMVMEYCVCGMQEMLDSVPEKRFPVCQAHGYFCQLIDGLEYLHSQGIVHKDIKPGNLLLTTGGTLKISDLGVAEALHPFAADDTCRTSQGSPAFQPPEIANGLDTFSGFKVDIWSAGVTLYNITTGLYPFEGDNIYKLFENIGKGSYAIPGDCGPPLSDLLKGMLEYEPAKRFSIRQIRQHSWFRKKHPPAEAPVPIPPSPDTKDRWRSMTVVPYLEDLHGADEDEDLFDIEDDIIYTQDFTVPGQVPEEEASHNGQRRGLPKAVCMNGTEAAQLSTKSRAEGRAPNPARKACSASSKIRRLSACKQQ"}, "[21]": {"biological_target": "AXL (human) (UniProt P30530)"}, "[22]": {"biological_target": "PRKCE (human) (UniProt Q02156)"}, "[23]": {"biological_target": "CLK1 (human) (UniProt P49759)"}, "[24]": {"biological_target": "JAK3 JH1 JH2 (human) (UniProt P52333)"}, "[25]": {"biological_target": "MAP3K9 (human) (UniProt P80192)", "sequence (P80192 whole entry, looked up)": "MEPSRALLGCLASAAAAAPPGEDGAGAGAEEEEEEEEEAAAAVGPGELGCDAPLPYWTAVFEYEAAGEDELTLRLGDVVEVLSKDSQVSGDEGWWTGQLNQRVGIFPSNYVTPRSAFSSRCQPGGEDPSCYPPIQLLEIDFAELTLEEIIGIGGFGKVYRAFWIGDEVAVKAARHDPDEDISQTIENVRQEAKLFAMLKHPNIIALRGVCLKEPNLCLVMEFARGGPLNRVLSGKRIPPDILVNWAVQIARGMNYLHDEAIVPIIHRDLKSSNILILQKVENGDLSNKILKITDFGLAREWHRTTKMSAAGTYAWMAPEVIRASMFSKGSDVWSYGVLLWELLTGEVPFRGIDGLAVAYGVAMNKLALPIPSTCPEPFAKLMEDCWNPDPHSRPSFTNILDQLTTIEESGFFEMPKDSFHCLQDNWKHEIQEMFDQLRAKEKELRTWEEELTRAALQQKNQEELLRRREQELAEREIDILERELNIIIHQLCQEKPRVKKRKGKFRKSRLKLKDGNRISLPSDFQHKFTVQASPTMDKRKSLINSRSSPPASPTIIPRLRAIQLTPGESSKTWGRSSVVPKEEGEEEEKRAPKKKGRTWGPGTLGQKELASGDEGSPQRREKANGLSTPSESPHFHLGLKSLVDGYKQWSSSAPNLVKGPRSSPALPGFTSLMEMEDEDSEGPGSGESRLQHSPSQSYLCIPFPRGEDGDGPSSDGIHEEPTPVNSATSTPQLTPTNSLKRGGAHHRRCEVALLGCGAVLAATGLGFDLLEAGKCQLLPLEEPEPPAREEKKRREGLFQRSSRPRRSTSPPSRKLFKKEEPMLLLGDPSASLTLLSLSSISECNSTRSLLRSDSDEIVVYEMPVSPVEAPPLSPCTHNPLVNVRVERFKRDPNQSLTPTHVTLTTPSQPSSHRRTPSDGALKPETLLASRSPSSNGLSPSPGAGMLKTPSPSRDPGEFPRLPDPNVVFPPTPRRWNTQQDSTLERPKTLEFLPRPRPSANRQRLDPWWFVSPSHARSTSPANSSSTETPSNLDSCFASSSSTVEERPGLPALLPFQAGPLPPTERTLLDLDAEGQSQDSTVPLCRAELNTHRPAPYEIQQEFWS"}, "[26]": {"biological_target": "STK33 (human) (UniProt Q9BYT3)"}, "[27]": {"biological_target": "PAK3 (human) (UniProt O75914)"}, "[28]": {"biological_target": "ACVR1B (human) (UniProt P36896)"}, "[29]": {"biological_target": "SRPK2 (human) (UniProt P78362)"}, "[30]": {"biological_target": "ULK1 (human) (UniProt O75385)"}, "[31]": {"biological_target": "FYN (human) (UniProt P06241)"}, "[32]": {"biological_target": "AURKB (human) (UniProt Q96GD4)"}, "[33]": {"biological_target": "SRPK3 (human) (UniProt Q9UPE1)", "sequence (Q9UPE1 whole entry, looked up)": "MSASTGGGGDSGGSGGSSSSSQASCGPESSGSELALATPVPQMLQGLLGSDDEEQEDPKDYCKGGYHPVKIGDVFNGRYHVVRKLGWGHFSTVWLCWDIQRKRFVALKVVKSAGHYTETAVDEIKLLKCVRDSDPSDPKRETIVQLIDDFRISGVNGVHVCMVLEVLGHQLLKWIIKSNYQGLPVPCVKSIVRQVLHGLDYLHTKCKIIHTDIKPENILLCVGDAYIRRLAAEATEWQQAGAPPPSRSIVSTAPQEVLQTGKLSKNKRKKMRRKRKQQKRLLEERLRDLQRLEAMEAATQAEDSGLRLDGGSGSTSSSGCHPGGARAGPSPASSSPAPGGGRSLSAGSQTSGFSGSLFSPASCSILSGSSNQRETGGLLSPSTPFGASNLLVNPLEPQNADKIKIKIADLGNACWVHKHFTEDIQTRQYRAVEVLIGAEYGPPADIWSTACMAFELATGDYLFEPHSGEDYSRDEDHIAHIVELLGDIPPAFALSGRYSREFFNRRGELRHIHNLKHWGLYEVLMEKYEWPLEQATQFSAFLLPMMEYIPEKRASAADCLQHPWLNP"}, "[34]": {"biological_target": "TNK2 (human) (UniProt Q07912)"}, "[35]": {"biological_target": "TXK (human) (UniProt P42681)"}, "[36]": {"biological_target": "MAPKAPK2 (human) (UniProt P49137)"}, "[37]": {"biological_target": "INSR (human) (UniProt P06213)", "sequence (P06213 whole entry, looked up)": "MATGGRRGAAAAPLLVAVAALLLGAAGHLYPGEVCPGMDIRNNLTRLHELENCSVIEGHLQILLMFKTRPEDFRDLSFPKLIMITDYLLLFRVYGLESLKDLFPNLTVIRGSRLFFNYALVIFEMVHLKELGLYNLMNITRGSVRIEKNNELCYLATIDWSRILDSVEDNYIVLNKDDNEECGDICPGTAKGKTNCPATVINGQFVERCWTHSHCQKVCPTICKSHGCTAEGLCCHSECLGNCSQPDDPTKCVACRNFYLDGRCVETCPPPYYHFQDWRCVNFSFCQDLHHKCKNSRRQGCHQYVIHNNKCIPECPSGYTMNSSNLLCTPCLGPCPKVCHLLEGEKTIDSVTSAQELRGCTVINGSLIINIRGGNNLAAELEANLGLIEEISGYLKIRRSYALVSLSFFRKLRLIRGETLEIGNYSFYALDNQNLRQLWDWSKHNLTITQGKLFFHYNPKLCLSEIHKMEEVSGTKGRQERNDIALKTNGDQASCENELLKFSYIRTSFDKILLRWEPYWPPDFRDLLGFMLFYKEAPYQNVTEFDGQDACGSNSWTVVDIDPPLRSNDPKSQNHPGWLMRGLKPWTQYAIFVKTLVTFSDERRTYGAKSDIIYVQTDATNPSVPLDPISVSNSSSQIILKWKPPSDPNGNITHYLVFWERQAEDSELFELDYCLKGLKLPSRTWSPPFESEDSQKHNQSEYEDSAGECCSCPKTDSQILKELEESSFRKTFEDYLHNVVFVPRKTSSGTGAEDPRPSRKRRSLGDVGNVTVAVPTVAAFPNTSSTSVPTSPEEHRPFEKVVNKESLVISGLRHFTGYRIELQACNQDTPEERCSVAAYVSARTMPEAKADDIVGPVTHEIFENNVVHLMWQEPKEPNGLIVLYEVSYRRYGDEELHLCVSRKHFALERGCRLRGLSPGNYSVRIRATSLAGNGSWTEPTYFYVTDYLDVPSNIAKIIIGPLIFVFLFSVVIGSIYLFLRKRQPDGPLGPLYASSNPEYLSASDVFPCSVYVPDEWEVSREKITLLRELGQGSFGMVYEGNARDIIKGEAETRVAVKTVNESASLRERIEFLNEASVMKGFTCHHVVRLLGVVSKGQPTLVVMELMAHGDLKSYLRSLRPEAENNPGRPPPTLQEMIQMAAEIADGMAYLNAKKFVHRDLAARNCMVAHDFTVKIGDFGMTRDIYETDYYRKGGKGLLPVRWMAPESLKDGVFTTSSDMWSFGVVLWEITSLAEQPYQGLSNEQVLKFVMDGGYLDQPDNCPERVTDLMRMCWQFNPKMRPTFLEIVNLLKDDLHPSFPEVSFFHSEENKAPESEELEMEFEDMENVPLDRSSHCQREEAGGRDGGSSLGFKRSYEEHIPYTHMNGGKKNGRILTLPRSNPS"}, "[38]": {"biological_target": "MAP3K5 (human) (UniProt Q99683)"}, "[39]": {"biological_target": "IKBKE (human) (UniProt Q14164)"}, "[40]": {"biological_target": "CDK9 CCNT1 (human) (UniProt P50750+O60563)", "sequence (O60563 whole entry, looked up)": "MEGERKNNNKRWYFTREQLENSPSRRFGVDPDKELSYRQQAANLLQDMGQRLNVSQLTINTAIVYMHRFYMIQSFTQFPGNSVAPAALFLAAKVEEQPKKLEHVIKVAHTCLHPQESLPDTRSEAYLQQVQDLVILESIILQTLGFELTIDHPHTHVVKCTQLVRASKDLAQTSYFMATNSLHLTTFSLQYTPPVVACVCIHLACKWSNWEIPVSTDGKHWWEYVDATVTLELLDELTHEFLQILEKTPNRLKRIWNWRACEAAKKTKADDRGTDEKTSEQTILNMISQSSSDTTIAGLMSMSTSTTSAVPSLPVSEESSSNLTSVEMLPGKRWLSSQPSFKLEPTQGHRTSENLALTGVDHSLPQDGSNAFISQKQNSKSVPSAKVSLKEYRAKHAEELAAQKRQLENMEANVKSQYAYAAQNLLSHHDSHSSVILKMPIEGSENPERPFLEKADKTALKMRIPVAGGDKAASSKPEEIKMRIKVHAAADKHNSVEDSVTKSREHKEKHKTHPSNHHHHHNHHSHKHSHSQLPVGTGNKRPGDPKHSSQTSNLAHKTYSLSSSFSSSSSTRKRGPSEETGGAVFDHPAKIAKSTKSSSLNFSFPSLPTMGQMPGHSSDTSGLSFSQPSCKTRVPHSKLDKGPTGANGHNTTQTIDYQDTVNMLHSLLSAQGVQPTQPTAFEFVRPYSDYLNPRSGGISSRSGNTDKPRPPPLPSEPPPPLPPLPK", "sequence (P50750 whole entry, looked up)": "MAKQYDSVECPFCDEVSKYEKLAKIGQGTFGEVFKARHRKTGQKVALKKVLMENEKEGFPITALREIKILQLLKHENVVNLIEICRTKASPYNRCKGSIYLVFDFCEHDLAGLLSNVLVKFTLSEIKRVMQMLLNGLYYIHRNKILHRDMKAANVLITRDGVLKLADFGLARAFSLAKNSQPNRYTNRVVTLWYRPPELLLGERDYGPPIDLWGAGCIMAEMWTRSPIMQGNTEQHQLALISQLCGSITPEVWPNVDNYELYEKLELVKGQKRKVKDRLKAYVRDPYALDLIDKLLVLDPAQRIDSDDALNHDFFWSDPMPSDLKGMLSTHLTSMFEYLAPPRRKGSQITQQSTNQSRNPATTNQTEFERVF"}, "[41]": {"biological_target": "CDK9 CCNK (human) (UniProt O75909+P50750)"}},
  "data": [
    {"smiles": "N#Cc1c(NC(=O)c2cccc3ccccc23)sc2c1CCCC2", "values": [
      {"measurement": "residual activity", "setting": "[1]", "result": 111, "unit": "%"},
      {"measurement": "residual activity", "setting": "[2]", "result": 116, "unit": "%"},
      {"measurement": "residual activity", "setting": "[3]", "result": 89.2, "unit": "%"},
      {"measurement": "residual activity", "setting": "[4]", "result": 99.8, "unit": "%"},
      {"measurement": "residual activity", "setting": "[5]", "result": 94.9, "unit": "%"},
      {"measurement": "residual activity", "setting": "[6]", "result": 93.8, "unit": "%"},
      {"measurement": "residual activity", "setting": "[7]", "result": 101, "unit": "%"},
      {"measurement": "residual activity", "setting": "[8]", "result": 95.3, "unit": "%"},
      {"measurement": "residual activity", "setting": "[9]", "result": 105, "unit": "%"},
      {"measurement": "residual activity", "setting": "[10]", "result": 111, "unit": "%"},
      {"measurement": "residual activity", "setting": "[11]", "result": 120, "unit": "%"},
      {"measurement": "residual activity", "setting": "[12]", "result": 109, "unit": "%"},
      {"measurement": "residual activity", "setting": "[13]", "result": 97.1, "unit": "%"},
      {"measurement": "residual activity", "setting": "[14]", "result": 97.4, "unit": "%"},
      {"measurement": "residual activity", "setting": "[15]", "result": 109, "unit": "%"},
      {"measurement": "residual activity", "setting": "[16]", "result": 95.4, "unit": "%"},
      {"measurement": "residual activity", "setting": "[17]", "result": 104, "unit": "%"},
      {"measurement": "residual activity", "setting": "[18]", "result": 96.5, "unit": "%"},
      {"measurement": "residual activity", "setting": "[19]", "result": 101, "unit": "%"},
      {"measurement": "residual activity", "setting": "[20]", "result": 96.1, "unit": "%"},
      {"measurement": "residual activity", "setting": "[21]", "result": 106, "unit": "%"},
      {"measurement": "residual activity", "setting": "[22]", "result": 99.1, "unit": "%"},
      {"measurement": "residual activity", "setting": "[23]", "result": 99.2, "unit": "%"},
      {"measurement": "residual activity", "setting": "[24]", "result": 101, "unit": "%"},
      {"measurement": "residual activity", "setting": "[25]", "result": 99.5, "unit": "%"},
      {"measurement": "residual activity", "setting": "[26]", "result": 93, "unit": "%"},
      {"measurement": "residual activity", "setting": "[27]", "result": 105, "unit": "%"},
      {"measurement": "residual activity", "setting": "[28]", "result": 96.5, "unit": "%"},
      {"measurement": "residual activity", "setting": "[29]", "result": 99.2, "unit": "%"},
      {"measurement": "residual activity", "setting": "[30]", "result": 99.8, "unit": "%"},
      {"measurement": "residual activity", "setting": "[31]", "result": 102, "unit": "%"},
      {"measurement": "residual activity", "setting": "[32]", "result": 103, "unit": "%"},
      {"measurement": "residual activity", "setting": "[33]", "result": 95.7, "unit": "%"},
      {"measurement": "residual activity", "setting": "[34]", "result": 95.4, "unit": "%"},
      {"measurement": "residual activity", "setting": "[35]", "result": 97, "unit": "%"},
      {"measurement": "residual activity", "setting": "[36]", "result": 103, "unit": "%"},
      {"measurement": "residual activity", "setting": "[37]", "result": 98.2, "unit": "%"},
      {"measurement": "residual activity", "setting": "[38]", "result": 99, "unit": "%"},
      {"measurement": "residual activity", "setting": "[39]", "result": 94.3, "unit": "%"},
      {"measurement": "residual activity", "setting": "[40]", "result": 100, "unit": "%"},
      {"measurement": "residual activity", "setting": "[41]", "result": 90.5, "unit": "%"}
    ]}
  ]
}
